Here are results for 37 molecules from patent publication US10335399B2, “Chromane, isochromane and dihydroisobenzofuran derivatives as mGluR2—negative allosteric modulators, compositions, and their use” (Merck Sharp & Dohme Corp., priority 2016, dated 2019).

The experiment deals with recombinant human mGluR2 (Homo sapiens (Human), UniProt Q14416). Description: FLIPR Ca2+ mobilization assay: inhibition of glutamate-dependent mGluR2 activity. The format is cell-based. To be noted: CHO dhfr- cells stably expressing recombinant human mGluR2 and Gα16, Fluo-4 AM, FLIPR384; inhibition of response to 2,500 nM glutamate. Here is the method: Inhibition constants (IC50s; the concentration of compound required to provide 50% of maximal activity) are determined as follows. The compounds of the invention were tested in a fluorescence laser imaging plate reader based assay. This assay is a common functional assay to monitor Ca^2+ mobilization in whole cells expressing recombinant receptor coupled with a promiscuous G-protein. CHO (Chinese hamster ovary) dhfr− cells stably expressing recombinant human mGluR2 and Gα16 loaded with Fluo-4 AM (Invitrogen, Carlsbad Calif., USA) were treated with various concentrations of each of the tested compounds of the invention and the Ca^2+ response was monitored on a FLIPR384 instrument (Molecular Devices, Sunnydale Calif., USA). […] The maximum calcium response at each concentration of compound for agonist or antagonist were plotted as dose responses and the curves were fitted with a four parameter logistic equation giving IC50 and Hill coefficient using the iterative non-linear curve fitting software ADA (Merck & Co., Inc.). Data in the following table lists the activity of each compound to inhibit glutamate-dependent mGluR2 activity in this cellular assay.
Chain of recombinant human mGluR2 (Q14416 19-872): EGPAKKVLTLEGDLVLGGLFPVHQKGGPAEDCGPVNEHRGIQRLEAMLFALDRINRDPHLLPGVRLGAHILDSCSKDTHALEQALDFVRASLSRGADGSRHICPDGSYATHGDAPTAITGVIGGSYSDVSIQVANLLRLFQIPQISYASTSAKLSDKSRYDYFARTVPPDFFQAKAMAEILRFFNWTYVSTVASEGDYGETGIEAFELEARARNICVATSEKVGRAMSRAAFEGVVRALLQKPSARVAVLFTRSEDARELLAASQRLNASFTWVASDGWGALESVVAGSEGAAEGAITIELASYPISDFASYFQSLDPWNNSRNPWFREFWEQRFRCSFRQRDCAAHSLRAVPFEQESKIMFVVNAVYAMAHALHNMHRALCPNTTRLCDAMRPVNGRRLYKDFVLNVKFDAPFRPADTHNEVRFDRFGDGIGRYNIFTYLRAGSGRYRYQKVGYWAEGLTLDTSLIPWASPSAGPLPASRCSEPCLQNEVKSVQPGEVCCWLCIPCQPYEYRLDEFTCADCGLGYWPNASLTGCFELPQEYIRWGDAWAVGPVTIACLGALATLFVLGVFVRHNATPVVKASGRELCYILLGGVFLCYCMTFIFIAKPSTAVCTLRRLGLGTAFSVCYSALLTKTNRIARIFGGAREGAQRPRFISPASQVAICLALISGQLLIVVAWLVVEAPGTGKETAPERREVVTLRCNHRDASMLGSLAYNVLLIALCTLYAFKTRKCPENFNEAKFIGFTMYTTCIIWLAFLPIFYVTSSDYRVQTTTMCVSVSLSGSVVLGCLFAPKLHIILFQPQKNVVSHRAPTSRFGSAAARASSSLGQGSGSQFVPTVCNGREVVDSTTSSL
(Calcium assays in cells follow changes in intracellular calcium, usually with a dye or a luminescent sensor.)
Turning to `COC[C@@H]1CCc2c(-c3ccc(F)cc3F)cc(C(N)=O)nc2O1` (single isomer, unassigned) [Example 3-5A], the IC50 stood at 26 nM.

As to `NC(=O)c1cc(-c2ccc(F)cc2F)c2c(n1)[C@@H]1CC[C@H]2O1` (single isomer, unassigned) [Example 5-1B], the IC50 amounted to 500 nM.

On to `NC(=O)c1cc(-c2ccc(F)cc2F)c2c(n1)O[C@@H](CC(F)(F)F)CC2` (single isomer, unassigned) [Example 3-8B], for which the IC50 amounted to 24 nM.

On to `NC(=O)c1cc(-c2cnn(C(F)F)c2)c2c(n1)OC(COC(F)F)CC2` (single isomer, unassigned) [Example 3-4A, (S)- or (R)-2-((difluoro-methoxy)methyl)-5-(1-(difluoromethyl)-1H-pyrazol-4-yl)-3,4-dihydro-2H-pyrano[2,3-b]pyridine-7-carboxamide], for which the IC50 worked out at 274 nM.

Regarding `NC(=O)c1cc(-c2ccc(F)cc2F)c2c(n1)O[C@H](CF)CC2` (single isomer, unassigned) [Example 3-6A], the IC50 was 52 nM.

With `NC(=O)c1cc(-c2ccc(F)cc2F)c2c(n1)O[C@H](C1CC1)CC2` [Example 2-3B, (S)-2-cyclopropyl-5-(2,4-difluorophenyl)-3,4-dihydro-2H-pyrano[2,3-b]pyridine-7-carboxamide], the IC50 came to 32 nM.

Take `NC(=O)c1cc(-c2cnn(C(F)F)c2)c2c(n1)C1CCC(C2)O1` (single isomer, unassigned) [Example 1-5A, (6R,9S)- or (6S,9R)-4-(1-(difluoromethyl)-1H-pyrazol-4-yl)-6,7,8,9-tetrahydro-5H-6,9-epoxycyclo-hepta[b]pyridine-2-carboxamide]: the IC50 was > 3000 nM.

Regarding `C[C@H]1Cc2c(-c3ccc(F)cc3F)cc(C(N)=O)nc2O[C@H]1COC(F)F` (single isomer, unassigned) [Example 3-9D], the IC50 was found to be 9 nM.

With `NC(=O)c1cc(-c2ccc(F)cc2F)c2c(n1)O[C@H](CO)CC2` [Example 2-1A, (S)-5-(2,4-difluorophenyl)-2-(hydroxmethyl)-3,4-dihydro-2H-pyrano[2,3-b]pyridine-7-carboxamide], the IC50 was determined as 38 nM.

For the molecule `C[C@@H]1Cc2c(-c3ccc(F)cc3F)cc(C(N)=O)nc2O[C@H]1CO` [Example 2-2C, (2R,3R)-5-(2,4-difluorophenyl)-2-(hydroxymethyl)-3-methyl-3,4-dihydro-2H-pyrano[2,3-b]pyridine-7-carboxamide], the concentration for half-maximal inhibition (IC50) is 35 nM.

With `Cc1ncc(-c2cc(C(N)=O)nc3c2CCC(COC(F)F)O3)s1` (single isomer, unassigned) [Example 3-3A, (S)- or (R)-2-((difluoro-methoxy)methyl)-5-(2-methylthiazol-5-yl)-3,4-dihydro-2H-pyrano[2,3-b]pyridine-7-carboxamide], the IC50 was 536 nM.

For `NC(=O)c1cc(-c2ccc(F)cc2F)c2c(n1)O[C@@H](C(F)F)CC2` [Example 3-7A, (R)-2-(difluoromethyl)-5-(2,4-difluorophenyl)-3,4-dihydro-2H-pyrano[2,3-b]pyridine-7-carboxamide], the IC50 is 18 nM.

For `C[C@]1(COC(F)F)CCc2c(-c3ccc(F)cc3F)cc(C(N)=O)nc2O1` (single isomer, unassigned) [Example 2-8B], the IC50 was 14 nM.

As to `NC(=O)c1cc(-c2ccc(F)cc2F)c2c(n1)[C@H]1CC[C@@H](C2)O1` [Example 1-2A, (6S,9R)-4-(2,4-difluorophenyl)-6,7,89-tetrahydro-5H-6,9-epoxycyclohepta[b]pyridine-2-carboxamide], the IC50 is 376 nM.

In the case of `NC(=O)c1cc(-c2ncc(F)cc2F)c2c(n1)[C@@H]1CC[C@H](C2)O1` (single isomer, unassigned) [Example 1-6B], the IC50 amounted to 1800 nM.

For the molecule `NC(=O)c1cc(-c2ccc(F)cc2F)c2c(n1)O[C@@H](CNCC(F)(F)F)CC2` (single isomer, unassigned) [Example 4-2B], the IC50 turned out to be 28 nM.

Take `CC(C)[C@H]1CCc2c(-c3ccc(F)cc3F)cc(C(N)=O)nc2O1` (single isomer, unassigned) [Example 2-4B]: the IC50 stood at 69 nM.

Take `CC(C)[C@@H]1CCc2c(-c3ccc(F)cc3F)cc(C(N)=O)nc2O1` (single isomer, unassigned) [Example 2-4A]: the IC50 came to 20 nM.

As for `COC[C@H]1CCc2c(-c3ccc(F)cc3F)cc(C(N)=O)nc2O1` (single isomer, unassigned) [Example 3-5B], the IC50 turned out to be 27 nM.

For `C[C@@H]1Cc2c(-c3ccc(F)cc3F)cc(C(N)=O)nc2O[C@@H]1COC(F)F` (single isomer, unassigned) [Example 3-9A], the IC50 was determined as 7 nM.

`NC(=O)c1cc(-c2ccc(F)cc2F)c2c(n1)O[C@H](C(F)F)CC2` [Example 3-7B, (S)-2-(difluoromethyl)-5-(2,4-difluorophenyl)-3,4-dihydro-2H-pyrano[2,3-b]pyridine-7-carboxamide]: the IC50 was 90 nM.

For the molecule `NC(=O)c1cc(-c2cnn(C(F)F)c2)c2c(n1)OC(COC(F)F)CC2` (single isomer, unassigned) [Example 3-4B, (R)- or (S)-2-((difluoro-methoxy)methyl)-5-(1-(difluoromethyl)-1H-pyrazol-4-yl)-3,4-dihydro-2H-pyrano[2,3-b]pyridine-7-carboxamide], the IC50 was determined as 1490 nM.

In the case of `NC(=O)c1cc(-c2ccc(F)cc2F)c2c(n1)O[C@H](COC(F)F)CC2` [Example 3-1B, (S)-2-((difluoromethoxy)methyl)-5-(2,4-difluorophenyl)-3,4-dihydro-2H-pyrano[2,3-b]pyridine-7-carboxamide], the IC50 came out at 19 nM.

`C[C@@H](OC(F)F)[C@@H]1CCc2c(-c3ccc(F)cc3F)cc(C(N)=O)nc2O1` [Example 2-9B, (S)-2-((R)-1-(difluoromethoxy)ethyl)-5-(2,4-difluorophenyl)-3,4-dihydro-2H-pyrano[2,3-b]pyridine-7-carboxamide]: the IC50 came to 114 nM.

Consider `C[C@H]1Cc2c(-c3ccc(F)cc3F)cc(C(N)=O)nc2O[C@H]1CO` [Example 2-2D, (2R,3S)-5-(2,4-difluorophenyl)-2-(hydroxmethyl)-3-methyl-3,4-dihydro-2H-pyrano[2,3-b]pyridine-7-carboxamide], for which the IC50 was determined as 81 nM.

Consider `NC(=O)c1cc(-c2ccc(Cl)cc2F)c2c(n1)[C@H]1CC[C@@H](C2)O1` (single isomer, unassigned) [Example 1-3A, (6S,9R)- or (6R,9S)-4-(4-chloro-2-fluorophenyl)-6,7,8,9-tetrahydro-5H-6,9-epoxycyclo-hepta[b]pyridine-2-carboxamide], for which the IC50 was 65 nM.

Turning to `Cn1cc(-c2cc(C(N)=O)nc3c2CC2CCC3O2)cn1` (single isomer, unassigned) [Example 1-4B, (6S,9R)- or (6R,9S)-4-(1-methyl-1H-pyrazol-4-yl)-6,7,8,9-tetrahydro-5H-6,9-epoxycyclo-hepta[b]pyridine-2-carboxamide], the IC50 was 1770 nM.

With `NC(=O)c1cc(-c2ccc(F)cc2F)c2c(n1)[C@@H]1CC[C@H](C2)O1` (single isomer, unassigned) [Example 1-2B], the IC50 amounted to 21 nM.

Take `NC(=O)c1cc(-c2cnn(C(F)F)c2)c2c(n1)C1CCC(C2)O1` (single isomer, unassigned) [Example 1-5B, (6S,9R)- or (6R,9S)-4-(1-(difluoromethyl)-1H-pyrazol-4-yl)-6,7,8,9-tetrahydro-5H-6,9-epoxycyclo-hepta[b]pyridine-2-carboxamide]: the IC50 came to 326 nM.

Take `C[C@@H]1CCc2c(-c3ccc(F)cc3F)cc(C(N)=O)nc2O1` (single isomer, unassigned) [Example 2-6A]: the IC50 came out at 10 nM.

On to `NC(=O)c1cc(-c2ccc(F)cc2F)c2c(n1)O[C@@H](CF)CC2` (single isomer, unassigned) [Example 3-6B], for which the IC50 came out at 10 nM.

In the case of `NC(=O)c1cc(-c2ccc(Cl)cc2F)c2c(n1)[C@@H]1CC[C@H](C2)O1` (single isomer, unassigned) [Example 1-3B, (6R,9S)- or (6S,9R)-4-(4-chloro-2-fluorophenyl)-6,7,8,9-tetrahydro-5H-6,9-epoxycyclo-hepta[b]pyridine-2-carboxamide], the IC50 was 12 nM.

In the case of `CN(C[C@@H]1CCc2c(-c3ccc(F)cc3F)cc(C(N)=O)nc2O1)CC(F)(F)F` (single isomer, unassigned) [Example 4-1A], the IC50 stood at 25 nM.

In the case of `NC(=O)c1cc(-c2ccc(F)cc2F)c2c(n1)O[C@@H](COC(F)F)CC2` [Example 3-1A, (R)-2-((difluoromethoxy)methyl)-5-(2,4-difluorophenyl)-3,4-dihydro-2H-pyrano[2,3-b]pyridine-7-carboxamide], the IC50 turned out to be 7 nM.

`NC(=O)c1cc(-c2ccc(F)cc2F)c2c(n1)O[C@@H](C1CC1)CC2` [Example 2-3A, (R)-2-cyclopropyl-5-(2,4-difluorophenyl)-3,4-dihydro-2H-pyrano[2,3-b]pyridine-7-carboxamide]: the IC50 stood at 20 nM.

Turning to `C[C@@]1(COC(F)F)CCc2c(-c3ccc(F)cc3F)cc(C(N)=O)nc2O1` (single isomer, unassigned) [Example 2-8A], the IC50 came out at 8 nM.

With `C[C@@H]1Cc2c(-c3ccc(F)cc3F)cc(C(N)=O)nc2O[C@H]1COC(F)F` [Example 3-9C, (2R,3R)-2-((difluoromethoxy)methyl)-5-(2,4-difluoropheny)-3-methyl-3,4-dihydro-2H-pyrano[2,3-b]pyridine-7-carboxamide], the IC50 worked out at 15 nM.

One may read the IC50 as the concentration that inhibits the measured activity by half.
